Reference: PubChem BioAssay (NCI)
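Protocol summary: plate cells (96-well), add compound at 5 concentrations, incubate 48 h, interpolate endpoints linearly. GI50 marks 50% less growth. TGI: concentration producing complete growth inhibition.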

Key:
Assay in all cases: NCI-60 cell line screen, 48 h
MDA-MB-435 = system: MDA-MB-435
K-562 leukemia = system: K-562 leukemia
CAKI-1 renal = system: CAKI-1 renal
RPMI-8226 leukemia = system: RPMI-8226 leukemia
SF-268 CNS = system: SF-268 CNS
HT29 colon = system: HT29 colon
SF-295 CNS = system: SF-295 CNS
COLO 205 colon = system: COLO 205 colon
OVCAR-8 ovarian = system: OVCAR-8 ovarian
HOP-62 NSCLC = system: HOP-62 NSCLC
TK-10 renal = system: TK-10 renal
U251 CNS = system: U251 CNS
UACC-62 melanoma = system: UACC-62 melanoma
SW-620 colon = system: SW-620 colon
UO-31 renal = system: UO-31 renal
SK-MEL-5 melanoma = system: SK-MEL-5 melanoma
MALME-3M melanoma = system: MALME-3M melanoma
BT-549 breast = system: BT-549 breast
HCT-116 colon = system: HCT-116 colon
EKVX NSCLC = system: EKVX NSCLC
A549 NSCLC = system: A549 NSCLC
MOLT-4 leukemia = system: MOLT-4 leukemia
NCI-H460 lung = system: NCI-H460 lung
M14 melanoma = system: M14 melanoma
HCC-2998 colon = system: HCC-2998 colon
T-47D breast = system: T-47D breast
OVCAR-3 ovarian = system: OVCAR-3 ovarian
SK-OV-3 ovarian = system: SK-OV-3 ovarian
SK-MEL-2 melanoma = system: SK-MEL-2 melanoma

CCN1C(=O)N(CC)C2SC(N/N=C/c3cccs3)=NC21 (centres undefined)
GI50 (MDA-MB-435): 33.8 nM
TGI (MDA-MB-435): 205 nM
GI50 (K-562 leukemia): 91.2 nM
TGI (K-562 leukemia): > 100000 nM
GI50 (CAKI-1 renal): 191 nM
TGI (CAKI-1 renal): > 100000 nM
GI50 (RPMI-8226 leukemia): 348 nM
TGI (RPMI-8226 leukemia): > 100000 nM
GI50 (SF-268 CNS): 1710 nM
TGI (SF-268 CNS): > 100000 nM
GI50 (HT29 colon): 260 nM
TGI (HT29 colon): 3200 nM
GI50 (SF-295 CNS): 262 nM
TGI (SF-295 CNS): > 100000 nM
GI50 (COLO 205 colon): 248 nM
TGI (COLO 205 colon): 723 nM
GI50 (OVCAR-8 ovarian): 398 nM
GI50 (HOP-62 NSCLC): 470 nM
TGI (HOP-62 NSCLC): > 100000 nM
TGI (TK-10 renal): > 100000 nM
GI50 (U251 CNS): 318 nM
TGI (U251 CNS): > 32600 nM
GI50 (UACC-62 melanoma): 141 nM
TGI (UACC-62 melanoma): > 100000 nM
GI50 (SW-620 colon): 249 nM
TGI (SW-620 colon): > 100000 nM
GI50 (UO-31 renal): 595 nM
TGI (UO-31 renal): > 100000 nM
GI50 (SK-MEL-5 melanoma): 523 nM
TGI (SK-MEL-5 melanoma): 3360 nM
TGI (MALME-3M melanoma): > 100000 nM
GI50 (BT-549 breast): 211 nM
TGI (BT-549 breast): 1270 nM
GI50 (HCT-116 colon): 281 nM
TGI (HCT-116 colon): 5430 nM
GI50 (EKVX NSCLC): 655 nM
TGI (EKVX NSCLC): > 100000 nM
GI50 (A549 NSCLC): 431 nM
TGI (A549 NSCLC): > 100000 nM
GI50 (MOLT-4 leukemia): 465 nM
TGI (MOLT-4 leukemia): > 100000 nM
GI50 (NCI-H460 lung): 333 nM
GI50 (M14 melanoma): 192 nM
TGI (M14 melanoma): > 100000 nM
GI50 (HCC-2998 colon): 313 nM
TGI (HCC-2998 colon): > 93800 nM
GI50 (T-47D breast): > 45100 nM
TGI (T-47D breast): > 100000 nM
GI50 (OVCAR-3 ovarian): 333 nM
TGI (OVCAR-3 ovarian): 2070 nM
GI50 (SK-OV-3 ovarian): 532 nM
TGI (SK-OV-3 ovarian): > 100000 nM
GI50 (SK-MEL-2 melanoma): 360 nM
TGI (SK-MEL-2 melanoma): > 100000 nM
